{"source": "patent US20210254101A1", "about": "“METHODS FOR TREATING SPINAL CORD INJURY” (THE CHILDREN'S MEDICAL CENTER CORPORATION, priority 2018, published 2021)", "type_in_all_cases": "in vivo, mouse", "key": {"[1]": {"tested_on": "mice with staggered lesions", "experiment": "Hindlimb kinematic analysis (MotoRater) and EMG recording of TA and GS muscles during stepping", "source_text": "This extent of recovery is functionally significant, as stepping ability has been implicated as the limiting step for functional recovery in severe injury models (Schucht et al., 2002).\nEMG Recording and cortical stimulation. The procedure for EMG recording in free moving animals was similar to that described previously (Pearson et al., 2005). In brief, at 9 weeks after surgery, 5 mice from each group (Control, CLP290 and AAV-KCC2 treated mice) underwent implantation of customized bipolar electrodes into selected hindlimb muscles to record EMG activity. Electrodes (793200, A-M Systems) were led by 30 gauge needles and inserted into the mid-belly of the medial gastrocnemius (GS) and tibialis anterior (TA) muscles of the right hindlimb. A common ground wire was inserted subcutaneously in the neck-shoulder area. Wires were routed subcutaneously through the back to a small percutaneous connector securely cemented to the skull of the mouse. EMG signals were acquired using a differential AC amplifier (1700, A-M Systems, WA) with 10-1000 Hz filtration, sampled at 4 kHz using a digitizer (PowerLab 16/35, ADInstruments), and analyzed by LabChart 8 (ADInstruments).\n(§1) Behavioral Experiments. Motor function was evaluated with a locomotor open field rating scale on the Basso Mouse Scale (BMS). For transient pharmacological treatments, ten to fifteen minutes (van den Brand et al., 2012) prior to behavioral tests (grounding walking, all of which were performed individually), mice received systematic administration (i.p.) of the neural modulators listed above. It is important to note that with a single intraperitoneal injection, plasma CNO levels peak at 15 min and become very low by 2 h after injection (Guettier et al., 2009). For chronic pharmacological treatments, 24 hours prior to behavioral tests, mice received systematic administration of the compounds listed above. All behavioral tests were completed within 1-3 hours. For detailed hindlimb kinematic analysis, mice from different groups were placed in the MotoRater (TSE Systems, (Zorner et al., 2010)), and all kinematic analysis was performed based on data collected by the MotoRater."}, "c-Fos": {"tested_on": "c-Fos", "experiment": "c-Fos immunoreactivity in spinal cord segments between T7 and T10 after 1 hour walking", "source_text": "In mature neurons, GABA and glycine are inhibitory because they open chloride channels, which allow chloride ion influx leading to hyperpolarization. In contrast, during development, the elevated intracellular chloride levels render GABAA- and glycine-mediated currents depolarizing and generally excitatory. During early postnatal life, KCC2 upregulation in postnatal neurons is crucial for reducing intracellular chloride concentrations, transforming excitation into inhibition (Ben-Ari et al., 2012; Kaila et al., 2014). Thus, injury-induced KCC2 down-regulation (Boulenguez et al., 2010; Cote et al., 2014) would be expected to restore an immature state in which GABA and glycine receptors can depolarize neurons. In this scenario, KCC2 activation in spinal inhibitory neurons would transform local circuits in the relay zone towards a more physiological state, which is more receptive to descending inputs. To examine this, c-Fos immunoreactivity was used as a proxy of neuronal activity in the spinal cord segments between T7 and T10 at 8 weeks after injury, and after walking on a treadmill for 1 hour. In each group, the majority of c-Fos-positive cells in these spinal segments were also positively stained with NeuN, a neuronal marker (FIG. 11A, 11B). In injured mice without treatment, the c-Fos-positive neurons were concentrated in the dorsal horn of the spinal cord (FIG. 5A-5C), perhaps reflecting hypersensitivity to peripheral sensory inputs in these injured mice. […] This KCC2-transformed distribution pattern is similar to what was detected in intact mice, in response to walking (FIG. 5A-5C).\nImmunohistochemistry and Imaging. The paraformaldehyde (PFA) fixed tissues were cryo-protected with 30% sucrose and processed using cryostat (section thickness 40 μm for spinal cord). Sections were treated with a blocking solution containing 10% normal donkey serum with 0.5% Triton-100 for 2 hours at room temperature before staining. The primary antibodies (4 □, overnight) used were: rabbit anti-GFAP [DAKO (Z0334), 1:600]; rabbit anti-5-HT [Immunostar (20080), 1:5,000]; chicken anti-GFP [Abcam (ab13970), 1:400]; rabbit anti-RFP [Abcam (ab34771), 1:400]; rabbit anti-PKCγ [Santa Cruz (sc211), 1:100]; rat anti-HA [Sigma (11867423001), 1:200]; rabbit anti-c-Fos [Cell signaling (2250s), 1:100]; and mouse anti-NeuN [Millipore (MAB377), 1:400]. Secondary antibodies (room temperature, 2 h) included: Alexa Fluor 488-conjugated donkey anti chicken and rabbit; and Alexa Fluor 594-conjugated donkey anti rabbit (all from Invitrogen). c-Fos immunoreactivity of spinal neurons was determined as previously described (Courtine et al., 2009), after 1-hour of continuous quadrupedal free walking (intact), stepping (CLP290 or AAV-KCC2 treated mice) or dragging (vehicle or AAV-GFP treated mice). The mice were returned to their cages, and were then anesthetized and sacrificed by intracardial perfusion of 4% PFA (wt/vol) in phosphate buffered saline (PBS) about 2 hours later."}, "[2]": {"tested_on": "mice with a complete T8 spinal cord transection", "experiment": "BMS open field locomotion after complete T8 spinal cord transection", "settings": "complete T8 transection; same treatment as in staggered lesion; FIG. 7E", "source_text": "CLP290's effects could result from reactivating the spared dormant descending connections in the spinal cord after SCI. However, it could also act directly on the lumbar spinal cord, independently of descending inputs. […] Therefore, different from this transient effector that acts directly on the lumbar spinal cord, the effects of CLP290 on functional improvement are dependent on spared connections.\nThe procedure of T8 full transection was similar to that described elsewhere (Courtine et al., 2009). Briefly, a midline incision was made over the thoracic vertebrae, followed by a T8 laminectomy. The complete T8 transection was then performed carefully using both a scalpel and micro-scissors. The muscle layers were then sutured and the skin was secured with wound clips.\nas §1"}, "[3]": {"settings": "T8/9, 8 weeks after injury, chronic treatment, FIG. 5A-5C"}}, "data": [{"smiles": "O=C1N=C(N2CCCCN2)S/C1=C\\c1ccc(F)cc1OC(=O)N1CCCC1", "note": "[CLP290, [5-Fluoro-2-[(Z)-(2-hexahydropyridazin-1-yl-4-oxo-thiazol-5-ylidene)methyl]phenyl] pyrrolidine-1-carboxylate]", "values": [{"measurement": "total hindlimb stride length", "setting": "[1]; 9 weeks post staggered injury, versus vehicle, FIG. 1J", "value": "significantly increased"}, {"measurement": "TA/GS activation pattern during stepping gait", "setting": "[1]; compared with alternating TA/GS activation in intact mice, FIG. 1K", "value": "co-activation of TA and GS during the swing phase"}, {"measurement": "oscillation of hindlimb joints", "setting": "[1]; staggered-lesioned mice during stepping, FIGS. 1H-1K", "value": "significantly increased oscillation of hindlimb joints"}, {"measurement": "bodyweight support during stepping", "setting": "[1]; staggered-lesioned mice, 8-9 weeks after injury", "value": "could partially support their body weight"}, {"measurement": "EMG activity of tibialis anterior (TA) and gastrocnemius soleus (GS) muscles", "setting": "[1]; staggered-lesioned mice, FIG. 1K, 2H", "value": "showed both TA and GS activity"}, {"measurement": "c-Fos pattern after withdrawal of treatment", "setting": "c-Fos; 2 weeks after withdrawal, FIGS. 11C and 11D", "value": "returned to what seen without treatment"}, {"measurement": "c-Fos-positive neurons in the dorsal horn (laminae I-V)", "setting": "c-Fos; [3]", "value": "a reduction in the dorsal horn"}, {"measurement": "c-Fos-positive neurons in the intermediate/ventral spinal cord", "setting": "c-Fos; [3]", "value": "a significant increase in the intermediate/ventral spinal cord"}, {"measurement": "functional recovery (BMS), chronic treatment", "setting": "[2]", "value": "failed to promote any significant functional recovery"}]}]}
